Assay results reported in paper PMC6986909 (Nature, 2020).

Experiments:
Type in all cases: biochemical
AcrIII-1 SIRV1 gp29 = target: T1, AcrIII-1 SIRV1 gp29 (Sulfolobus islandicus rod-shaped virus 1, UniProt Q8QL27); experiment: degradation of unlabelled cA6, TLC under […] nm UV; conditions: 40 uM dimer, 450 uM cA6, MES pH 5.5, 70 °C; weak substrate, very slow
T1 sequence (Q8QL27 1-114): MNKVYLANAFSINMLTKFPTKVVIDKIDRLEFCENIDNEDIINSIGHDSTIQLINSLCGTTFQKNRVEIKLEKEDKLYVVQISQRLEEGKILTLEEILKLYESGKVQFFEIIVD

AcrIII-1 YddF = target: T2, AcrIII-1 YddF (Bacillus subtilis, UniProt P96643); experiment: single-turnover cleavage of […]-labelled cA4, denaturing PAGE / TLC; conditions: 8 uM dimer, MES pH 6.0, 100 mM NaCl, 1 mM EDTA, 37 °C; labelled compound
T2 sequence (P96643 1-108): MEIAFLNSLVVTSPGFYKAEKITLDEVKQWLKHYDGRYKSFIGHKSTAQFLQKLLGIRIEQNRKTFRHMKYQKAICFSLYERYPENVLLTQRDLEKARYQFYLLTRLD

Crn1 Sso2081 = target: T3, Crn1 Sso2081 (Saccharolobus solfataricus, UniProt Q7LYJ6); experiment: as above; conditions: 4 uM dimer, Tris-HCl pH 8.0, 100 mM NaCl, 1 mM EDTA, 50 °C; labelled compound
T3 sequence (Q7LYJ6 1-178): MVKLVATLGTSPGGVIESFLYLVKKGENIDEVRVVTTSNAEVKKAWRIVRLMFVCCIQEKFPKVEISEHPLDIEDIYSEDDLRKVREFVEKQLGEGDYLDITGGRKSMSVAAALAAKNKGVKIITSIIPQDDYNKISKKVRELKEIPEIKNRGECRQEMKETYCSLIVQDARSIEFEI

Compound	degradation of unlabelled cA6, TLC under 254 nm UV (AcrIII-1 SIRV1 gp29)	single-turnover cleavage of 32P-labelled cA4, denaturing PAGE / TLC (AcrIII-1 YddF)	single-turnover cleavage of 32P-labelled cA4, denaturing PAGE / TLC (Crn1 Sso2081)
Nc1ncnc2c1ncn2[C@@H]1O[C@@H]2COP(=O)(O)O[C@H]3[C@@H](O)[C@H](n4cnc5c(N)ncnc54)O[C@@H]3COP(=O)(O)O[C@H]3[C@@H](O)[C@H](n4cnc5c(N)ncnc54)O[C@@H]3COP(=O)(O)O[C@H]3[C@@H](O)[C@H](n4cnc5c(N)ncnc54)O[C@@H]3COP(=O)(O)O[C@H]3[C@@H](O)[C@H](n4cnc5c(N)ncnc54)O[C@@H]3COP(=O)(O)O[C@H]3[C@@H](O)[C@H](n4cnc5c(N)ncnc54)O[C@@H]3COP(=O)(O)O[C@H]2[C@H]1O [cA6]	strong preference for cA4 over cA6, with the latter degraded very slowly by comparison	–	–
Nc1ncnc2c1ncn2[C@@H]1O[C@@H]2COP(=O)(O)O[C@H]3[C@@H](O)[C@H](n4cnc5c(N)ncnc54)O[C@@H]3COP(=O)(O)O[C@H]3[C@@H](O)[C@H](n4cnc5c(N)ncnc54)O[C@@H]3COP(=O)(O)O[C@H]3[C@@H](O)[C@H](n4cnc5c(N)ncnc54)O[C@@H]3COP(=O)(O)O[C@H]2[C@H]1O [cA4]	–	Both proteins possess a potent ring nuclease activity, rapidly degrading cA4	Kinetic comparison of cA4 degradation by the AcrIII-1 enzymes SIRV1 gp29 and YddF
